Measurements from the NIST ThermoML archive (doi:10.1021/acs.jced.8b00157).
Several values for one entry are separate records, joined by “and”; a condition that tells them apart may be missing. Identical values can stand only once.

Test: an = ratio of the nth substance listed
Settings: 100 kPa, Liquid, Buoyancy - hydrostatic balance

[F][Al]([F])[F] [aluminum fluoride] + [F-].[K+]
mass density
Settings	a2 = 1.3	a2 = 1.5
1013.8 K	1821 kg/m3	–
1014 K	1822 kg/m3	–
1014.2 K	1821 kg/m3	–
1014.4 K	1822 kg/m3	–
1014.5 K	1822 kg/m3	–
1014.9 K	1821 kg/m3	–
1015.1 K	1821 kg/m3	–
1015.2 K	1820 kg/m3 and 1821 kg/m3	–
1015.3 K	1822 kg/m3	–
1015.5 K	1821 kg/m3	–
1015.7 K	1820 kg/m3	–
1016.1 K	1819 kg/m3	–
1016.3 K	1820 kg/m3	–
1016.5 K	1819 kg/m3	–
1016.7 K	1819 kg/m3	–
1016.8 K	1819 kg/m3	–
1017 K	1818 kg/m3	–
1017.4 K	1818 kg/m3	–
1017.8 K	1819 kg/m3	–
1018 K	1818 kg/m3	–
1018.1 K	1818 kg/m3	–
1018.2 K	1819 kg/m3	–
1018.4 K	1819 kg/m3 and 1816 kg/m3	–
1018.5 K	1818 kg/m3	–
1018.6 K	1817 kg/m3	–
1018.9 K	1816 kg/m3	–
1019.5 K	1818 kg/m3	–
1019.7 K	1816 kg/m3	–
1019.8 K	1817 kg/m3	–
1019.9 K	1817 kg/m3 and 1815 kg/m3 and 1816 kg/m3	–
1020.3 K	1816 kg/m3	–
1020.5 K	1815 kg/m3	–
1020.8 K	1815 kg/m3	–
1021 K	1816 kg/m3	–
1021.1 K	1816 kg/m3	–
1021.2 K	1814 kg/m3	–
1021.4 K	1815 kg/m3	–
1021.7 K	1816 kg/m3 and 1815 kg/m3	–
1022 K	1813 kg/m3	–
1022.1 K	1815 kg/m3	–
1022.6 K	1815 kg/m3	–
1022.8 K	1813 kg/m3	–
1022.9 K	1812 kg/m3	–
1023 K	1814 kg/m3	–
1023.1 K	1814 kg/m3	–
1023.2 K	1814 kg/m3	–
1023.4 K	1813 kg/m3	–
1023.7 K	1812 kg/m3	–
1024 K	1813 kg/m3	–
1024.1 K	1812 kg/m3	–
1024.4 K	1812 kg/m3	–
1024.9 K	1813 kg/m3 and 1811 kg/m3	–
1025 K	1811 kg/m3	–
1025.2 K	1813 kg/m3	–
1025.6 K	1810 kg/m3	–
1025.7 K	1810 kg/m3	–
1025.8 K	1812 kg/m3	–
1026 K	1812 kg/m3	–
1026.2 K	1812 kg/m3	–
1026.4 K	1810 kg/m3	–
1026.5 K	1809 kg/m3	–
1026.6 K	1810 kg/m3	–
1026.7 K	1811 kg/m3	–
1026.9 K	1809 kg/m3	–
1027.1 K	1810 kg/m3	–
1027.2 K	1808 kg/m3	–
1027.3 K	1811 kg/m3	–
1027.4 K	1808 kg/m3	–
1027.5 K	1809 kg/m3	–
1027.9 K	1809 kg/m3	–
1028 K	1809 kg/m3	–
1028.1 K	1809 kg/m3	–
1028.3 K	1807 kg/m3	–
1028.6 K	1807 kg/m3	–
1028.7 K	1807 kg/m3	–
1028.9 K	1808 kg/m3	–
1029.1 K	1806 kg/m3	–
1029.3 K	1807 kg/m3 and 1808 kg/m3	–
1029.4 K	1807 kg/m3	–
1029.8 K	1806 kg/m3	–
1030.3 K	1806 kg/m3	–
1030.6 K	1807 kg/m3 and 1806 kg/m3	–
1030.9 K	1805 kg/m3	–
1031.1 K	1806 kg/m3 and 1804 kg/m3	–
1031.5 K	1804 kg/m3	–
1031.7 K	1805 kg/m3 and 1806 kg/m3	–
1031.8 K	1805 kg/m3	–
1032.3 K	1803 kg/m3	–
1032.5 K	1805 kg/m3	–
1032.6 K	1803 kg/m3	–
1032.7 K	1804 kg/m3	–
1032.9 K	1804 kg/m3	–
1033.1 K	1803 kg/m3	–
1033.3 K	1803 kg/m3 and 1804 kg/m3	–
1033.5 K	1803 kg/m3	–
1033.7 K	1801 kg/m3 and 1802 kg/m3	–
1033.8 K	1803 kg/m3	–
1033.9 K	1804 kg/m3	–
1034.1 K	1802 kg/m3	–
1034.5 K	1801 kg/m3	–
1034.8 K	1802 kg/m3 and 1801 kg/m3	–
1034.9 K	1802 kg/m3	–
1035.3 K	1801 kg/m3 and 1800 kg/m3	–
1035.6 K	1800 kg/m3	–
1035.7 K	1799 kg/m3	–
1036.4 K	1799 kg/m3	–
1036.6 K	1801 kg/m3 and 1798 kg/m3	–
1037 K	1799 kg/m3	–
1037.1 K	1801 kg/m3	–
1037.5 K	1797 kg/m3	–
1037.7 K	1798 kg/m3	–
1038.1 K	1800 kg/m3 and 1797 kg/m3	–
1038.2 K	1799 kg/m3	–
1038.4 K	1796 kg/m3	–
1038.5 K	1799 kg/m3	–
1038.6 K	1799 kg/m3	–
1038.9 K	1799 kg/m3	–
1039 K	1796 kg/m3	–
1039.4 K	1799 kg/m3	–
1039.6 K	1795 kg/m3	–
1039.8 K	1795 kg/m3	–
1039.9 K	1798 kg/m3	–
1040.1 K	1795 kg/m3	–
1040.4 K	1795 kg/m3	–
1040.6 K	1798 kg/m3 and 1795 kg/m3	–
1040.8 K	1798 kg/m3	–
1040.9 K	1797 kg/m3	–
1041 K	1796 kg/m3 and 1797 kg/m3	–
1041.2 K	1795 kg/m3	–
1042.1 K	1796 kg/m3	–
1042.3 K	1794 kg/m3	–
1042.5 K	1796 kg/m3	–
1042.8 K	1793 kg/m3 and 1794 kg/m3	–
1042.9 K	1792 kg/m3 and 1794 kg/m3	–
1043 K	1793 kg/m3	–
1043.1 K	1795 kg/m3	–
1043.4 K	1795 kg/m3	–
1043.7 K	1795 kg/m3	–
1043.8 K	1794 kg/m3	–
1043.9 K	1794 kg/m3 and 1791 kg/m3	–
1044.3 K	1791 kg/m3	–
1044.4 K	1791 kg/m3	–
1045 K	1793 kg/m3	–
1045.3 K	1793 kg/m3 and 1790 kg/m3	–
1045.4 K	1789 kg/m3	–
1045.6 K	1792 kg/m3	–
1045.8 K	1793 kg/m3	–
1046.1 K	1793 kg/m3	–
1046.3 K	1789 kg/m3	–
1046.5 K	1789 kg/m3	–
1046.7 K	1792 kg/m3 and 1789 kg/m3	–
1046.9 K	1789 kg/m3	–
1047 K	1789 kg/m3	–
1047.3 K	1792 kg/m3	–
1047.4 K	1791 kg/m3	–
1047.6 K	1791 kg/m3	–
1048 K	1791 kg/m3	–
1048.1 K	1788 kg/m3	–
1048.4 K	1786 kg/m3	–
1048.6 K	1790 kg/m3 and 1786 kg/m3	–
1048.8 K	1788 kg/m3	–
1049.4 K	1789 kg/m3	–
1049.5 K	1789 kg/m3	–
1049.6 K	1786 kg/m3	–
1049.7 K	1785 kg/m3	–
1049.9 K	1789 kg/m3	–
1050.5 K	1788 kg/m3 and 1785 kg/m3	–
1050.6 K	1784 kg/m3	–
1051.2 K	1787 kg/m3	–
1051.3 K	1787 kg/m3	–
1051.5 K	1787 kg/m3 and 1783 kg/m3 and 1784 kg/m3	–
1051.6 K	1787 kg/m3 and 1782 kg/m3	–
1052 K	1783 kg/m3	–
1052.2 K	1786 kg/m3 and 1782 kg/m3	–
1052.7 K	1786 kg/m3	–
1053.2 K	1782 kg/m3	–
1053.4 K	1786 kg/m3	–
1053.5 K	1786 kg/m3	–
1053.7 K	1786 kg/m3	–
1053.9 K	1782 kg/m3	–
1054.4 K	1785 kg/m3	–
1054.7 K	1784 kg/m3	–
1055.3 K	1784 kg/m3	–
1055.6 K	1784 kg/m3	–
1056 K	1784 kg/m3	–
1056.1 K	1783 kg/m3	–
1056.3 K	1783 kg/m3	–
1056.4 K	1783 kg/m3	–
1057.3 K	1782 kg/m3	–
1057.7 K	1782 kg/m3	–
1057.9 K	1781 kg/m3	–
1058.1 K	1781 kg/m3	–
1059.2 K	1781 kg/m3	–
1059.3 K	1780 kg/m3	–
1059.5 K	1780 kg/m3	–
1060.2 K	1779 kg/m3 and 1780 kg/m3	–
1060.5 K	–	1796 kg/m3
1060.8 K	–	1796 kg/m3
1061.1 K	1778 kg/m3	1796 kg/m3
1061.2 K	1779 kg/m3	–
1061.3 K	1778 kg/m3	–
1061.5 K	1779 kg/m3	–
1061.6 K	1777 kg/m3	1796 kg/m3
1061.9 K	–	1795 kg/m3
1062.2 K	–	1795 kg/m3
1062.5 K	–	1795 kg/m3
1062.8 K	1777 kg/m3	–
1062.9 K	–	1795 kg/m3
1063.2 K	1776 kg/m3 and 1777 kg/m3	–
1063.3 K	–	1794 kg/m3
1063.6 K	–	1794 kg/m3
1063.7 K	1776 kg/m3	–
1064.1 K	1775 kg/m3	1794 kg/m3
1064.4 K	–	1794 kg/m3
1064.6 K	1775 kg/m3	–
1064.7 K	–	1793 kg/m3
1065.2 K	–	1793 kg/m3
1065.3 K	1775 kg/m3	–
1065.5 K	–	1792 kg/m3
1065.8 K	1774 kg/m3	–
1066 K	1774 kg/m3	1792 kg/m3
1066.3 K	1775 kg/m3	–
1066.4 K	–	1792 kg/m3
1066.7 K	–	1792 kg/m3
1066.9 K	1774 kg/m3	–
1067 K	1773 kg/m3	–
1067.2 K	1773 kg/m3	1791 kg/m3
1067.4 K	–	1791 kg/m3
1067.7 K	1772 kg/m3	–
1067.9 K	–	1791 kg/m3
1068.2 K	–	1790 kg/m3
